Active and inactive are the calls of the source. The rule behind the calls is not given here.
Legend:
[1] = target: T1, ADP-sugar pyrophosphatase (Homo sapiens, UniProt Q9UKK9); conditions: filed as antagonist
[2] = target: T1, ADP-sugar pyrophosphatase; set-up: species or system HEK293

Cn1c(=O)c2c(nc(N3CCN(CCCCN)CC3)n2Cc2nnc(-c3ccc(Cl)c(Cl)c3)o2)n(C)c1=O
Activity [1]: Active

CC#CC(=O)N1CCC[C@H]1c1nc(-c2ccc(C(=O)Nc3ccccn3)cc2)c2c(N)nccn12 [ACALABRUTINIB]
EC50 [2]: > 10 µM

CC#CC(=O)N[C@H]1CCCN(c2c(F)cc(C(N)=O)c3[nH]c(C)c(C)c23)C1 [BRANEBRUTINIB]
EC50 [2]: > 10 µM

C=CC(=O)N1CCC[C@@H](n2nc(-c3ccc(Oc4ccccc4)cc3)c3c(N)ncnc32)C1 [IBRUTINIB]
EC50 [2]: 1.23 µM

From ChEMBL document CHEMBL5506016 (J Med Chem, 2024)
